Measurements taken from the Deep4Chem optical property database.

Experiment: photoluminescence quantum yield (fraction); solvent given as SMILES
[1] = in O=P(c1ccccc1)(c1ccccc1)c1ccccc1Oc1ccccc1P(=O)(c1ccccc1)c1ccccc1

SMILES: CCCCCCOc1ccc(N(c2ccc(OCCCCCC)cc2)c2ccc(-c3sc(-c4ccc(N(c5ccc(OCCCCCC)cc5)c5ccc(OCCCCCC)cc5)cc4)c4nc(CC)c(CC)nc34)cc2)cc1
- photoluminescence quantum yield (in CN(C)C=O): 0.0205
- photoluminescence quantum yield (in ClC(Cl)Cl): 0.0225

SMILES: CC1(C)c2ccccc2N(c2ccccc2)c2ccc(S(=O)(=O)c3ccc4c(c3)C(C)(C)c3ccccc3N4c3ccccc3)cc21
- photoluminescence quantum yield [1]: 0.5

SMILES: c1ccc2cc(-c3c4ccccc4c(-c4ccc(-n5c6ccccc6c6ccccc65)cc4)c4ccccc34)ccc2c1
- photoluminescence quantum yield (in ClCCl): 0.76

SMILES: CCN(CC)c1ccc2cc(C#N)/c(=N\C(C)=O)oc2c1
- photoluminescence quantum yield (in CCO): 0.15
- photoluminescence quantum yield (in ClCCl): 0.8

SMILES: COC(=O)c1cc2c(cc3ccc4cccc5ccc2c3c45)[nH]1
- photoluminescence quantum yield (in C1CCOC1): 0.82

SMILES: CCOC(CN1C(=O)C2=C(c3cccs3)N(CC(OCC)OCC)C(=O)C2=C1c1cccs1)OCC
- photoluminescence quantum yield (in ClC(Cl)Cl): 0.41

SMILES: COc1c2ccccc2c(OC)c2c(C#CC(C)(C)C)c3cc4sccc4cc3c(C#CC(C)(C)C)c12
- photoluminescence quantum yield (in C1CCOC1): 0.1
- photoluminescence quantum yield (in Cc1ccccc1): 0.14
- photoluminescence quantum yield (in ClCCl): 0.08

SMILES: CCCCCOc1cc2oc(=O)c3c4ccc(N(c5ccc(C)cc5)c5ccc(C)cc5)cc4c4ccc5cccc6c(c1)c2c3c4c56
- photoluminescence quantum yield (in C1CCOC1): 0.53

SMILES: CCn1c2ccccc2c2cc(-c3cc(-c4ccc5c(c4)c4ccccc4n5CC)nc(N4CCCCC4)n3)ccc21
- photoluminescence quantum yield (in C1CCOC1): 0.15
- photoluminescence quantum yield (in CCOC(C)=O): 0.14
- photoluminescence quantum yield (in CN(C)C=O): 0.17
- photoluminescence quantum yield (in Cc1ccccc1): 0.16
- photoluminescence quantum yield (in ClCCl): 0.15

SMILES: OB1c2ccccc2Nc2ccccc21
- photoluminescence quantum yield (in ClCCl): 0.03

SMILES: CCCC1(CCC)c2cc(-c3ccc(-c4ccc(OC)cc4)o3)ccc2-c2ccc(-c3ccc(-c4ccc(OC)cc4)o3)cc21
- photoluminescence quantum yield (in C1CCCCC1): 0.79

SMILES: COc1ccc(-c2cc3c(o2)=CC2=C(C(F)(F)F)c4cc5oc(-c6ccc(OC)cc6)cc5n4[B-](F)(F)[N+]=32)cc1
- photoluminescence quantum yield (in C1CCOC1): 0.49
- photoluminescence quantum yield (in CC#N): 0.45
- photoluminescence quantum yield (in CCO): 0.37
- photoluminescence quantum yield (in CO): 0.32
- photoluminescence quantum yield (in Cc1ccccc1): 0.58
- photoluminescence quantum yield (in ClC(Cl)Cl): 0.56

SMILES: CC1(C)CC[N+]2=c3c(cc4c(c31)Oc1cc3c(cc1C=4c1ccccc1C(=O)O)C(c1ccccc1C(=O)O)=c1cc4c5c(c1O3)C(C)(C)CC[N+]=5CCC4)CCC2
- photoluminescence quantum yield (in ClC(Cl)Cl): 0.55

SMILES: CCCCCCN1C(=O)C(c2ccc(-n3c4ccccc4c4ccccc43)cc2)=C(c2ccc(-n3c4ccccc4c4ccccc43)cc2)C1=O
- photoluminescence quantum yield (in ClC(Cl)Cl): 0.42
- photoluminescence quantum yield (in c1ccc2c(c1)c1ccccc1n2-c1ccc(-c2ccc(-n3c4ccccc4c4ccccc43)cc2)cc1): 0.66

SMILES: CCOC(=O)c1cc(C(=O)OCC)c2cc(N(C)C)ccc2n1
- photoluminescence quantum yield (in CCO): 0.595

SMILES: c1cc2c3c(c1)OCCCCCCOc1cccc(c1-c1c4ccccc4c-3c3ccccc13)OCCCCCCO2
- photoluminescence quantum yield (in C1CCCCC1): 0.93

SMILES: CC1(C)c2ccccc2N(c2ccc(-c3nc(-c4ccccn4)n(-c4ccc(N5c6ccccc6C(C)(C)c6ccccc65)cc4)n3)cc2)c2ccccc21
- photoluminescence quantum yield (in ClCCl): 0.0876

SMILES: CC(C)(C)C#Cc1cc2c(C#CC(C)(C)C)c(C#CC(C)(C)C)c3cc(C#CC(C)(C)C)cc4c(C#CC(C)(C)C)c(C#CC(C)(C)C)c(c1)c2c34
- photoluminescence quantum yield (in ClCCl): 0.12

SMILES: ClP1(Cl)=N[P@@](Cl)(Oc2ccc3ccc4cccc5ccc2c3c45)=N[P@@](Cl)(Oc2ccc3ccc4cccc5ccc2c3c45)=N1
- photoluminescence quantum yield (in ClCCl): 0.7

SMILES: CC(C)(C)c1ccc(C(C)(C)C)c(N2C(=O)c3cccc4c(-c5ccc(-c6ccccc6)s5)ccc(c34)C2=O)c1
- photoluminescence quantum yield (in CO): 0.34
- photoluminescence quantum yield (in CS(C)=O): 0.43
- photoluminescence quantum yield (in Cc1ccccc1): 0.06

SMILES: CC(C)c1cccc(C(C)C)c1-n1c(=O)c2cc3nc(-c4ccccc4)c4cc5c(=O)n(-c6c(C(C)C)cccc6C(C)C)c(=O)c6cc7c(-c8ccccc8)nc8cc(c1=O)c2c1c3c4c(c56)c7c81
- photoluminescence quantum yield (in ClC(Cl)Cl): 0.1

SMILES: C(#Cc1ccc2ncsc2c1)c1ccc(N(c2ccc(C#Cc3ccc4ncsc4c3)cc2)c2ccc(C#Cc3ccc4ncsc4c3)cc2)cc1
- photoluminescence quantum yield (in Cc1ccccc1): 0.53

SMILES: Cc1ccccc1C1=C2C=c3c(oc4ccccc34)=[N+]2[B-](F)(F)n2c1cc1c3ccccc3oc12
- photoluminescence quantum yield (in C1CCCCC1): 0.88
- photoluminescence quantum yield (in CCOC(C)=O): 0.93
- photoluminescence quantum yield (in CO): 0.88

SMILES: COc1cc(OC)cc(C2=C3C(C)=C(I)C(/C=C/c4c[nH]c5ccc([N+](=O)[O-])cc45)=[N+]3[B-](F)(F)n3c(/C=C/c4c[nH]c5ccc([N+](=O)[O-])cc45)c(I)c(C)c32)c1
- photoluminescence quantum yield (in C1CCOC1): 0.03
- photoluminescence quantum yield (in CS(C)=O): 0.02
- photoluminescence quantum yield (in ClCCl): 0.02

SMILES: F[B-]1(F)n2c(Oc3ccccc3)c(Cl)c3c2C(=C2C(Br)=C(Cl)C(Oc4ccccc4)=[N+]21)Oc1ccccc1-3
- photoluminescence quantum yield (in ClCCl): 0.99

SMILES: F[B-]1(F)n2cccc2C(c2ccccc2)=C2C=CC(c3ccc(OC4=[N+]5C(=C(c6ccccc6)c6cc(Br)c(Br)n6[B-]5(F)F)C=C4Br)cc3)=[N+]21
- photoluminescence quantum yield (in ClC(Cl)Cl): 0.01

SMILES: CCCCCCC1(CCCCCC)c2cc(-c3nc(-c4ccc5c(c4)C(CCCCCC)(CCCCCC)c4cc(-n6c7ccc(C(C)(C)C)cc7c7cc(C(C)(C)C)ccc76)ccc4-5)nc(-c4ccc5c(c4)C(CCCCCC)(CCCCCC)c4cc(-n6c7ccc(C(C)(C)C)cc7c7cc(C(C)(C)C)ccc76)ccc4-5)n3)ccc2-c2ccc(-n3c4ccc(C(C)(C)C)cc4c4cc(C(C)(C)C)ccc43)cc21
- photoluminescence quantum yield (in C1CCOC1): 0.56
- photoluminescence quantum yield (in CCCCCC): 1
- photoluminescence quantum yield (in Cc1ccccc1): 0.99
- photoluminescence quantum yield (in ClCCl): 0.56

SMILES: COc1ccc2cc3c(C)cc(=O)oc3cc2c1
- photoluminescence quantum yield (in CC#N): 0.0071
- photoluminescence quantum yield (in CCCCCC): 0
- photoluminescence quantum yield (in CCO): 0.13
- photoluminescence quantum yield (in CCOC(C)=O): 0.0006
- photoluminescence quantum yield (in CO): 0.21
- photoluminescence quantum yield (in ClC(Cl)Cl): 0.011
- photoluminescence quantum yield (in OCC(F)(F)F): 0.33

SMILES: CN(C)c1ccc2cc3ccc(=[N+](C)C)cc-3oc2c1
- photoluminescence quantum yield (in CCO): 0.48
- photoluminescence quantum yield (in O): 0.38

SMILES: ClP1(Cl)=N[P@](Cl)(Oc2ccc3ccc4cccc5ccc2c3c45)=N[P@@](Cl)(Oc2ccc3ccc4cccc5ccc2c3c45)=N1
- photoluminescence quantum yield (in ClCCl): 0.76

SMILES: CC1(C)CCc2c(c3ccccc3c3nc4c(nc23)c2c(c3ccccc34)OC(C)(C)CC2)O1
- photoluminescence quantum yield (in C1CCCCC1): 0.33
- photoluminescence quantum yield (in C1COCCO1): 0.47
- photoluminescence quantum yield (in CC#N): 0.28
- photoluminescence quantum yield (in CC(C)O): 0.4
- photoluminescence quantum yield (in CCCCCC): 0.37
- photoluminescence quantum yield (in ClC(Cl)Cl): 0.42
- photoluminescence quantum yield (in c1ccccc1): 0.29

SMILES: COC(=O)[C@@]12N=N[C@@H](C3C[C@H]31)[C@@H]1C[C@@H]12 (stereo not given in full)
- photoluminescence quantum yield (in CC#N): 0.0066

SMILES: CCCCC1(CCCC)c2cc(C#Cc3ccc(C=C4c5ccccc5CCc5ccccc54)cc3)ccc2-c2ccc(C#Cc3ccc(C=C4c5ccccc5CCc5ccccc54)cc3)cc21
- photoluminescence quantum yield (in C1CCOC1): 0.027

SMILES: CCOC(=O)c1ccc2c(c1)n(C)c1c3ccc(C(=O)OCC)cc3n(C)c21
- photoluminescence quantum yield (in CCCO): 0.53

SMILES: Cc1cc(=O)oc2c1cc(Br)c1occ(C)c12
- photoluminescence quantum yield (in C1CCCCC1): 0.0006
- photoluminescence quantum yield (in C1COCCO1): 0.001
- photoluminescence quantum yield (in CC#N): 0.002
- photoluminescence quantum yield (in CCO): 0.004
- photoluminescence quantum yield (in OCC(F)(F)F): 0.004

SMILES: C(/C=C/c1cc2c3c(c1)CCCN3CCC2)=C\c1ccncc1
- photoluminescence quantum yield (in C1COCCO1): 0.031
- photoluminescence quantum yield (in CC#N): 0.034
- photoluminescence quantum yield (in CCCCCCC): 0.033
- photoluminescence quantum yield (in CO): 0.016

SMILES: COc1ccc(C2=[N+]3C(=Nc4c(-c5ccccc5)c5c(n4[B-]3(F)F)-c3ccc(OC)cc3CC5)C(c3ccccc3)=C2)cc1
- photoluminescence quantum yield (in ClC(Cl)Cl): 0.38

SMILES: CC1(C)CC(NCc2ccc3ccc4cccc5ccc2c3c45)CC(C)(C)N1[O]
- photoluminescence quantum yield (in C1CCCCC1): 0.07
- photoluminescence quantum yield (in CC#N): 0.03
- photoluminescence quantum yield (in CO): 0.04
- photoluminescence quantum yield (in ClC(Cl)Cl): 0.02

SMILES: Cc1c(COC(=O)c2ccc(I)cc2)n2c(OCC(=O)c3ccc(I)cc3)c(C)c(=O)n2c1=O
- photoluminescence quantum yield (in CCO): 0.842

SMILES: CC(C)(C)/C=C/C1=[N+]2C(=C(c3c4ccccc4cc4ccccc34)c3ccc(/C=C/C(C)(C)C)n3[B-]2(F)F)C=C1
- photoluminescence quantum yield (in ClC(Cl)Cl): 0.58

SMILES: COc1ccc2cc(C#CC3=C4CCc5ccccc5C4=[O+][B-](F)(F)O3)ccc2c1
- photoluminescence quantum yield (in ClCCl): 0.16

SMILES: COc1cccc2cc(-c3ccc([N+](=O)[O-])cc3)c(=N)oc12
- photoluminescence quantum yield (in C1CCOC1): 0.004
- photoluminescence quantum yield (in CC#N): 0.0016
- photoluminescence quantum yield (in CS(C)=O): 0.0021
- photoluminescence quantum yield (in ClC(Cl)Cl): 0.023

SMILES: N#Cc1ccc(N)c2nonc12
- photoluminescence quantum yield (in C1COCCO1): 0.218
- photoluminescence quantum yield (in CC#N): 0.105
- photoluminescence quantum yield (in CCCCCC): 0.329
- photoluminescence quantum yield (in CCO): 0.059
- photoluminescence quantum yield (in Cc1ccccc1): 0.304
- photoluminescence quantum yield (in ClCCl): 0.195
- photoluminescence quantum yield (in O): 0.002

SMILES: CCCCCc1c(C(=O)c2ccc3c4c(cccc24)-c2cccc4c2C3CC=C4)c2ccc3cccc4c5cccc6ccc1c(c65)c2c34 (stereo not given)
- photoluminescence quantum yield (in ClCCl): 0.082

SMILES: COc1ccc(-c2cc3c(ccc4sc5ccc6sc(-c7ccc(C#N)cc7)cc6c5c43)s2)cc1
- photoluminescence quantum yield (in ClCCl): 0.09

SMILES: C[Si]1(C)c2ccccc2-c2cc3c(cc21)-c1ccccc1[Si]3(C)C
- photoluminescence quantum yield (in ClCCl): 0.45

SMILES: CC1(C)c2ccccc2N(c2c(F)cc(-c3nnc(-c4ccccc4)o3)cc2F)c2ccccc21
- photoluminescence quantum yield (in Cc1ccccc1): 0.24
- photoluminescence quantum yield [1]: 0.72

SMILES: [O-][n+]1c(/C=C/c2ccc3ccccc3c2)nc(N2CCOCC2)c2c1CCCC2
- photoluminescence quantum yield (in ClCCl): 0.05

SMILES: CN(C)c1ccc(/C=C/c2cnc(/C=C/c3ccc(C#N)cc3)o2)cc1
- photoluminescence quantum yield (in ClCCl): 0.5

SMILES: CCCCCCc1ccc(-n2c3c4cccc(OC)c4nc(-c4ccc(OC)cc4)c3c3c2c2c(-c4ccc(OC)cc4)nc4c(OC)cccc4c2n3-c2ccc(CCCCCC)cc2)cc1
- photoluminescence quantum yield (in ClC(Cl)Cl): 0.042

SMILES: CCOC(=O)COc1ccc(/C=C/C2=[N+]3C(=Cc4c5ccccc5c(-c5[nH]c(C)cc5C)n4[B-]3(F)F)C(C)=C2)cc1
- photoluminescence quantum yield (in ClCCl): 0.75

SMILES: CC(C)(C)c1ccc2c(c1)c1cc(C(C)(C)C)cc3c1n2B1c2c-3cccc2-c2cc(C(C)(C)C)cc3c4cc(C(C)(C)C)ccc4n1c23
- photoluminescence quantum yield (in C1CCOC1): 0.63

SMILES: Cc1ccc2nc3cc4c(cc3c(-c3ccccc3)c2c1)[Si](C)(C)O[Si]4(C)C
- photoluminescence quantum yield (in ClCCl): 0.27

SMILES: CC(C)[Si](C#Cc1c2ccccc2c(C#C[Si](C(C)C)(C(C)C)C(C)C)c2nc3c(nc12)C1c2ccccc2C3c2ccccc21)(C(C)C)C(C)C
- photoluminescence quantum yield (in CCCCCC): 0.7
